Experimental data from US20190255144A1, “SPECIFIC OLIGOPEPTIDES AS ANTI-ANGIOGENIC DRUGS” (NEURONAX, priority 2014, published 2019).

System: chorioallantoic membrane (CAM) vascularization
Experiment: Treatments on the chorioallantoic membrane (CAM), fluorescein angiography
Format: in vivo, chicken embryo
Settings: impregnated sponge on CAM at ED9; oligopeptide 250 μg/mL (9 hours), VEGF 10 ng/mL
Text: In fact, TSP-1 is known for inducing the apoptosis of endothelial cells. […] It is also a decisive process under certain physiological and pathological conditions (cancers in particular). This mechanism is controlled by numerous factors having either an inhibitor potential or an activator. So as to evaluate the main properties of these in vivo factors, the most common model is the CAM (chorioallantoic membrane) model from the chicken embryo (Ribatti et al., 2000). It offers the advantage of making it possible to test the pro- or anti-angiogenic factors during an active angiogenesis phase between the embryonic stages 4j and 10j. The major effects of the various molecules can therefore be evaluated in vivo. The model of the CAM can also be used in experimental tumor development. The grafting of human cancer cells onto the surface of the CAM is carried out in the 9-day embryonic stage. Three days after the grafting at ED12, the formation of a tumor is visible at the surface of the CAM. The latter can be treated topically during the 48 hours that follow this stage, and the tumors are sampled at ED14j. The fertilized eggs (Haas Poultry Farm, Strasbourg, France) are kept for 24 hours at 18° C. before the incubation is started up. […] The embryonic stages are determined from tables of Hamburger and Hamilton (H and H, 1951). […]

With VEGF the “Vascularization / microvascularization of the CAM (in words)” value was “the microvascularization is dense and comprises numerous vascular branches”.
